Columns and labels:
[1] = target: SARS-CoV-2 Main Protease (SARS-CoV-2) (UniProt P0DTD1)
[2] = target: SARS-CoV-2 Main Protease (SARS-CoV-2) (UniProt P0DTD1); remark: listed apart in the source

SMILES | IC50 [1] [µM] | inhibition ([1]; 50.0 µM) [%] | inhibition ([2]; 20.0 µM) [%] | inhibition ([2]; 50.0 µM) [%] | relative solubility at 20 uM | relative solubility at 100 uM | inhibition ([1]; 20.0 µM) [%]
Cc1cc(Br)cc2c1N(CCBr)C(=O)C2=O | 16.7 | 95.6 | -3.94 | -4.22 | 1 | 1 | 
Cc1cccc(-c2nnnn2C2CC2C)c1NC(=O)CCc1cccnc1 (stereo not drawn) |  | 13.5 |  | -16.5 | 1 | 1 | 0
CC(Cl)C(=O)N1CCC(C(=O)N2CCCCC2)CC1 (stereo not drawn) |  | 0 | -11.9 | -27 | 0.99 | 1 | 0
Nc1cccc(C2CN(C(=O)CCl)Cc3ccccc32)c1 (stereo not drawn) | 11.4 | 100 | 48 | 53.4 | 0.97 | 0.96 | 
O=C(Cc1cc(Cl)cc(Cl)c1)Nc1nncs1 |  | 0 | 13.9 | -0.821 | 0.84 | 0.7 | 
O=C(NC1CCCCC1NC(=O)C1CCCCC1)c1ccncc1 (stereo not drawn) |  |  | -14.4 | -20.6 | 1 | 1 | 0
C=CC(=O)N(c1ccc(C(F)(F)F)cc1)C(C(=O)NCCc1cccc(F)c1)c1cncc(C#N)c1 (stereo not drawn) | 3.01 | 96.5 | 53.5 | 93.2 | 1 | 0.99 | 
CC1(C)Cc2cccc(OCCNC(=O)c3cc(=O)[nH]c4cc(F)ccc34)c2O1 |  | 13.8 | 36.7 | 69.9 | 0.97 | 0.97 | 
COc1ccc2c(c1)C(C(=O)Nc1cnccc1-n1cccn1)CCC2 (stereo not drawn) |  | 0 | -15.2 | 7.3 | 0.99 | 0.95 | 
O=C(Cc1ccc2[nH]c(=O)[nH]c2c1)NC1(CNC(=O)c2cnc[nH]2)CC1 | 27.3 | 76.6 | 6.85 | 3.02 | 1 | 1 | 
O=C(Cc1c[nH]c2ncccc12)Nc1cccc(Cl)c1 |  |  | 5.95 | 9.34 | 0.99 | 0.97 | 0
O=C(Cc1cccnc1Cl)Nc1cccc(OCCc2ccccc2)c1 |  | 5.03 | 1.54 | 6.9 | 0.81 | 0.27 | 0
O=C(NCC1COc2ccccc2O1)c1cc(=O)[nH]c2cc(F)ccc12 (stereo not drawn) |  | 3.98 | -0.372 | -2.5 | 0.98 | 0.62 | 
COc1cc(CNC(=O)Cc2ncc[nH]2)c2ccccc2n1 |  | 15.6 |  | -23.1 | 1 | 1 | 0
O=C(Cc1ccc2ccccc2c1)Nc1cc(C(F)(F)F)ccn1 |  | 29.3 | -2.55 | 3.43 | 0.9 | 0.38 | 11
CC1CCCC(OCc2cccc(NC(=O)NC(C)c3ccn[nH]3)c2)C1 (stereo not drawn) |  | 0 |  | -40.1 | 1 | 0.85 | 0
CCn1c(=O)n(CC(=O)Nc2c(C)ccnc2C)c2ccccc21 |  | 0 | -1.64 | -2.86 | 1 | 1 | 
O=C(Cc1ccc(Cl)s1)Nc1cccnc1 |  |  | 0.922 | 11.5 | 1 | 1 | 0
O=C(CCl)N1CCN(C(c2ccccc2)c2ccccc2)CC1 | 0.386 | 100 |  | 108 | -0.2 | 0.01 | 100

SMILES | IC50 [1] [µM] | inhibition ([1]; 50.0 µM) [%] | inhibition ([2]; 20.0 µM) [%] | inhibition ([2]; 50.0 µM) [%] | relative solubility at 20 uM | relative solubility at 100 uM | inhibition ([1]; 20.0 µM) [%]
Cc1cccc(NC(=O)C(C#N)C(=O)C2CC2)c1 (stereo not drawn) |  | 0.517 |  | 5.88 | 0.99 | 0.99 | 0.422
Cc1ccccc1C(C(=O)NCC(O)Cn1ccnn1)c1ccccc1 (stereo not drawn) |  |  | 0.424 | 4.24 | 1 | 1.01 | 0
O=C(COc1ccccc1)NCCc1ccccc1 |  | 0 | -0.178 | -0.0738 | 1 | 1 | 0
O=C(Nc1ccccc1)c1cc(Cl)ccc1O |  |  | 3.75 | 8.41 | 1 | 0.89 | 0
C=CC(=O)N(c1ccc(C(C)OC)cc1)C(C(=O)NC(C)(C)C)c1cccnc1 (stereo not drawn) |  |  | 7.07 | 15.9 | 0.98 | 0.86 | 0
Cc1ccncc1NC(=O)CCNc1ccc(S(N)(=O)=O)cc1 |  | 0 |  | -27.1 | 1 | 1 | 0
Cc1cccc(CC(=O)Nc2cccnc2C#N)c1 |  |  | 8.4 | -5.94 | 1 | 1 | 0
Cc1ccncc1NC(=O)Nc1ccccc1 |  | -0.18 |  | 21.1 | 1 | 1 | 0
COc1ccccc1OCCNC(=O)c1cc(=O)[nH]c2ccc(Cl)cc12 |  | 23 | -2.31 | 34.1 | 0.93 | 0.66 | 
Cc1ccncc1NC(=O)Cc1cccc(CO)c1 |  | 1.14 | 2.87 | 6.05 | 1 | 1 | 
Cc1ccncc1Cn1ccccc1=O |  | 6.5 | 3.62 | 7.02 | 1 | 1 | 
CNCc1c[nH]c2ccc(F)cc12 |  | 16.1 |  | 32.7 | 0.99 | 1 | 3.09
C=CC(=O)N(c1cc(C(C)(C)C)n[nH]1)C(C(=O)Nc1c(C)cccc1CC)c1cccnc1 (stereo not drawn) |  |  | 4.05 | 4.71 | 0.92 | 0.78 | 0
O=C(NCc1ccno1)c1ccccc1Oc1ccc(Cl)cc1Cl |  | 0 | -13 | -12.4 | 1 | 0.96 | 0
NC(=O)[C@@H]1CN(C2CCOCC2)C[C@H]1c1ccccc1 (stereo in doubt) |  | 0 | -22.2 | -23 | 1 | 1 | 0
O=C(Cn1cccn1)N1CCN(S(=O)(=O)c2cccc(F)c2)CC1 |  |  | -11.9 | 1 | 1 | 1 | 0
CC(CCc1ccccc1)N1CCN(C(=O)CCl)CC1 (stereo not drawn) | 13.6 | 91.1 | 45 | 60.7 | 1 | 1 | 62.6
Cc1ccncc1NC(=O)Cc1ccc2[nH]ccc2c1 |  | 0 | 2.86 | -2.33 | 1 | 1 | 
CN1CCN(C(=O)Cc2c[nH]c3ncccc23)CC1C(=O)NCCc1c[nH]c2ccc(F)cc12 (stereo not drawn) |  | -15 | -9.55 | -21.5 | 0.98 | 0.98 | 
